ChEMBL document CHEMBL5356956, “Optimizing and characterizing 4-methyl substituted pyrazol-3-carboxamides leading to the peripheral cannabinoid 1 receptor inverse agonist TM38837” (Bioorg Med Chem Lett, 2024)
Values after ≈ are worked out from the molar mass of the structure shown.

How the values were obtained:
[1] = Solubility of compound; assay type: physicochemical
[2] = Lipophilicity, logD of compound by chromatographic analysis; assay type: physicochemical
Cannabinoid receptor 1 [3] = target: T1, Cannabinoid receptor 1 (Homo sapiens, UniProt P21554); experiment: Inverse agonist activity at human CB1 receptor expressed in CHO-K1 cell membrane by GTP-gamma-S assay; assay type: functional, cell membranes
T1 sequence (P21554 whole entry): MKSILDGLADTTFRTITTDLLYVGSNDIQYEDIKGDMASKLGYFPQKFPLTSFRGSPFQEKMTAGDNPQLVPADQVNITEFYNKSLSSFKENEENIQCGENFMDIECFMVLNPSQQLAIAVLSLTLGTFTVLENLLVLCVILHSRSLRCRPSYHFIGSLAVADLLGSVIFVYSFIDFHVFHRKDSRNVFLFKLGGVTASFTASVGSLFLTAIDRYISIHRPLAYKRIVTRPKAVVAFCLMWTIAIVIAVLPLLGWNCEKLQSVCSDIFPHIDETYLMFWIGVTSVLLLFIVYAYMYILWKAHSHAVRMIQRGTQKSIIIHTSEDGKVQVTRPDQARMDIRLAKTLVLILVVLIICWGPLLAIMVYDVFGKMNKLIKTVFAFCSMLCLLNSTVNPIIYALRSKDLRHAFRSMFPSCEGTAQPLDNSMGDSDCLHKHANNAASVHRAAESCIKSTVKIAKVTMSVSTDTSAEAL

[4] = Clearance in rat hepatocytes assessed per million cells; assay type: ADME, cell-based, Hepatocyte
Cannabinoid receptor 1 [5] = target: T1, Cannabinoid receptor 1; experiment: Inverse agonist activity at human CB1 receptor expressed in African green monkey COS7 cells co-expressing G-protein in presence of CP55940 by IP3 assay; assay type: functional, cell membranes, Membrane
CYP2C9 = CYP2C9 (Homo sapiens, UniProt P11712); experiment: Inhibition of CYP2C9 (unknown origin) at 10 uM relative to control; assay type: ADME
CYP2C9, sequence (P11712 whole entry): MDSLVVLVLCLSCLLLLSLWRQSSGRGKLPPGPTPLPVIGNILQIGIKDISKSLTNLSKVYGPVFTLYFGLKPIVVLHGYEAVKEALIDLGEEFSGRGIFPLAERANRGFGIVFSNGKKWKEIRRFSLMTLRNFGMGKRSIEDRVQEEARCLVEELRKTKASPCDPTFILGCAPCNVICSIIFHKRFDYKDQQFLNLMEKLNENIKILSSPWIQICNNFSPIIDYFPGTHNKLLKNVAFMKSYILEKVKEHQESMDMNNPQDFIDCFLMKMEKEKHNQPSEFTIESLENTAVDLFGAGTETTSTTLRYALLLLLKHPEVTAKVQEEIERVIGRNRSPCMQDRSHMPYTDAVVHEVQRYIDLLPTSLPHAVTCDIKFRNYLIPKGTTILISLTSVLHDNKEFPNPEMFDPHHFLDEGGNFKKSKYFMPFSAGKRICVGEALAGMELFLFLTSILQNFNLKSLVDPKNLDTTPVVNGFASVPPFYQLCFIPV

[6] = Subchronic toxicity in DIO mouse assessed as reduction in body weight at 10 mg/kg, po measured after 7 days; assay type: organism-based; set-up: scale not given: the % may be the effect or the level left; details: in vivo, 168 h, time 7 day

| SMILES | solubility [1] [µM] | chromatographic logD [2] | IC50 (Cannabinoid receptor 1 [3]) [nM] | CLH [4] [µL/min/1e6 cells] | IC50 (Cannabinoid receptor 1 [5]) [nM] | inhibition at 10 µM (CYP2C9) [%] | Activity [6] [%] |
| --- | --- | --- | --- | --- | --- | --- | --- |
| C[C@@H]1C[C@](O)(c2cccc(F)c2)CCN1C(=O)c1nn(-c2ccccc2Cl)c(-c2ccc(Cl)cc2)c1CC(N)=O | 64 (≈ 37.2 µg/mL) | 3 | 0.4 | 24 | – | – | – |
| CCN1C(=O)OC2(CCN(C(=O)c3nn(-c4ccccc4Cl)c(-c4ccc(Cl)cc4)c3CC(N)=O)CC2)C1=O | 28 (≈ 16 µg/mL) | 2.7 | 1.3 | 21 | – | – | – |
| O=C(c1nn(-c2ccccc2Cl)c(-c2ccc(Cl)cc2)c1Cc1nn[nH]n1)N1CCC(Oc2cccc(F)c2)CC1 | 500 (≈ 296 µg/mL) | 2.4 | 130 | 45 | 33 | 14 | – |
| O=C(O)Cc1c(C(=O)N2CCC(Oc3cccc(C(F)(F)F)c3)CC2)nn(-c2ccccc2Cl)c1-c1ccc(Cl)cc1 | 500 (≈ 309 µg/mL) | 2.7 | – | 35 | 24 | – | – |
| O=C(c1nn(-c2ccccc2Cl)c(-c2ccc(Cl)cc2)c1Cc1nn[nH]n1)N1CCC(c2ccccc2F)CC1 | 474 (≈ 273 µg/mL) | 2.5 | 130 | 33 | 23 | – | – |
| O=C(O)Cc1c(C(=O)N2CCC(Oc3cccc(Cl)c3)CC2)nn(-c2ccccc2Cl)c1-c1ccc(Cl)cc1 | – | 2.8 | 51 | 32 | 10 | – | – |
| C[C@@H](NC(=O)c1nn(-c2ccccc2Cl)c(-c2ccc(Cl)cc2)c1Cc1nnn[nH]1)c1cccc(F)c1 | – | 2.1 | 86 | – | 64 | – | 5.2 |
| C[C@@H]1CC(O)(c2cccc(F)c2)C[C@H](C)N1C(=O)c1nn(-c2ccccc2Cl)c(-c2ccc(Cl)cc2)c1CC(N)=O (some centres not stated) | 79 (≈ 47 µg/mL) | 3.5 | 2.2 | – | – | – | – |
| O=C(c1nn(-c2ccccc2Cl)c(-c2ccc(Cl)cc2)c1Cc1nn[nH]n1)N1CCC(Oc2cccc(F)c2F)CC1 | 396 (≈ 242 µg/mL) | 2.5 | 110 | 14 | 61 | – | – |
| O=C(c1nn(-c2ccccc2Cl)c(-c2ccc(Cl)cc2)c1Cc1nn[nH]n1)N1CCC(Oc2ccc(Cl)cc2)CC1 | 204 (≈ 124 µg/mL) | 2.6 | 47 | 77 | 30 | 38 | – |
| CC(C)c1noc(C2(O)CCN(C(=O)c3nn(-c4ccccc4Cl)c(-c4ccc(Cl)cc4)c3CC(N)=O)CC2)n1 | 4 (≈ 2.33 µg/mL) | 3.2 | 0.6 | 65 | – | – | – |
| O=C(O)Cc1c(C(=O)N2CCC(Oc3ccc(OC(F)(F)F)cc3)CC2)nn(-c2ccccc2Cl)c1-c1ccc(Cl)cc1 | 176 (≈ 112 µg/mL) | 3.2 | – | – | 10 | – | – |
| O=C(O)Cc1c(C(=O)N2CCC(Oc3cc(F)cc(F)c3)CC2)nn(-c2ccccc2Cl)c1-c1ccc(Cl)cc1 | 171 (≈ 100 µg/mL) | 3.2 | – | – | 8 | – | – |
| Cc1c(C(=O)NN2CCCCC2)nn(-c2ccc(Cl)cc2Cl)c1-c1ccc(Cl)cc1 [RIMONABANT] | – | – | – | – | – | – | 14.5 |
| O=C(O)Cc1c(C(=O)N2CCC(Oc3ccc(F)cc3)CC2)nn(-c2ccccc2Cl)c1-c1ccc(Cl)cc1 | 118 (≈ 67.1 µg/mL) | 3.6 | – | – | 6 | – | – |
| O=C(O)Cc1c(C(=O)N2CCC(Oc3cccc(F)c3)CC2)nn(-c2ccccc2Cl)c1-c1ccc(Cl)cc1 | 155 (≈ 88.1 µg/mL) | 3.3 | – | – | 15 | – | < 2 |
| N#Cc1cccc(OC2CCN(C(=O)c3nn(-c4ccccc4Cl)c(-c4ccc(Cl)cc4)c3CC(=O)O)CC2)c1 | 107 (≈ 61.6 µg/mL) | 3.3 | – | 26 | 53 | – | – |
| N=C(Cc1c(C(=O)NN2CCCCC2)nn(-c2ccccc2Cl)c1-c1ccc(Cl)cc1)NO | – | 2.9 | – | – | – | – | – |
| O=C(O)Cc1c(C(=O)N2CCC(Oc3ccc(C(F)(F)F)cc3)CC2)nn(-c2ccccc2Cl)c1-c1ccc(Cl)cc1 | 374 (≈ 231 µg/mL) | 3.1 | – | 17 | 7 | – | – |

| SMILES | solubility [1] [µM] | chromatographic logD [2] | IC50 (Cannabinoid receptor 1 [3]) [nM] | CLH [4] [µL/min/1e6 cells] | IC50 (Cannabinoid receptor 1 [5]) [nM] | inhibition at 10 µM (CYP2C9) [%] | Activity [6] [%] |
| --- | --- | --- | --- | --- | --- | --- | --- |
| N#Cc1cccc(C2(O)CCN(C(=O)c3nn(-c4ccccc4Cl)c(-c4ccc(Cl)cc4)c3CC(N)=O)CC2)c1 | 70 (≈ 40.2 µg/mL) | 2.6 | 0.4 | – | – | – | – |
| O=C(O)Cc1c(C(=O)N2CCC(Oc3ccc(F)c(F)c3)CC2)nn(-c2ccccc2Cl)c1-c1ccc(Cl)cc1 | 500 (≈ 293 µg/mL) | 2.9 | – | – | 12 | – | < 2 |
| O=C(O)Cc1c(C(=O)N2CCC(Oc3ccc(Cl)cc3)CC2)nn(-c2ccccc2Cl)c1-c1ccc(Cl)cc1 | – | 2.7 | 30 | 7 | 11 | – | – |
| O=C(O)Cc1c(C(=O)N2CCC(Oc3ccc(Cl)cc3F)CC2)nn(-c2ccccc2Cl)c1-c1ccc(Cl)cc1 | 83 (≈ 50 µg/mL) | 3.4 | – | 28 | 8 | – | – |
| C[C@@H](NC(=O)c1nn(-c2ccccc2Cl)c(-c2ccc(Cl)cc2)c1CC(N)=O)c1ccc(C(F)(F)F)nc1 | 21 (≈ 11.8 µg/mL) | 3.3 | 0.4 | 6 | – | – | – |
| CC(C)S(=O)(=O)N1CCC(NC(=O)c2nn(-c3ccccc3Cl)c(-c3ccc(Cl)cc3)c2CC(N)=O)CC1 | 33 (≈ 19.1 µg/mL) | 2.8 | 1.9 | 17 | – | – | – |
| C[C@@H](NC(=O)c1nn(-c2ccccc2Cl)c(-c2ccc(Cl)cc2)c1Cc1nn[nH]n1)c1ccc(Br)cc1 | – | 2.4 | – | – | 72 | – | – |
| C[C@@H](NC(=O)c1nn(-c2ccccc2Cl)c(-c2ccc(Cl)cc2)c1Cc1nn[nH]n1)c1ccc(F)c(Cl)c1 | – | 2.8 | 63 | – | 32 | – | 2.4 |
| NC(=O)Cc1c(C(=O)N2CCC(Oc3cccc(F)c3)CC2)nn(-c2ccccc2Cl)c1-c1ccc(Cl)cc1 | 9 (≈ 5.11 µg/mL) | 3.7 | 0.3 | 48 | – | – | – |
| C[C@@H]1CC(O)(c2ccccc2F)C[C@H](C)N1C(=O)c1nn(-c2ccccc2Cl)c(-c2ccc(Cl)cc2)c1CC(N)=O (some centres not stated) | 29 (≈ 17.3 µg/mL) | 3.6 | 0.7 | – | – | – | – |
| N#Cc1ccc(CNC(=O)c2nn(-c3ccccc3Cl)c(-c3ccc(Cl)cc3)c2CC(N)=O)cc1 | 16 (≈ 8.07 µg/mL) | 2.9 | 0.3 | – | – | – | – |
| O=C(c1nn(-c2ccccc2Cl)c(-c2ccc(Cl)cc2)c1Cc1nn[nH]n1)N1CCC(Oc2ccc(C(F)(F)F)cc2)CC1 | 140 (≈ 89.9 µg/mL) | 2.9 | 120 | 12 | 23 | – | – |
| O=C(O)Cc1c(C(=O)N2CCC(Oc3cccc(F)c3F)CC2)nn(-c2ccccc2Cl)c1-c1ccc(Cl)cc1 | 500 (≈ 293 µg/mL) | 2.5 | – | – | 15 | – | – |
| CC(=O)N1CCC(NC(=O)c2nn(-c3ccccc3Cl)c(-c3ccc(Cl)cc3)c2CC(N)=O)CC1 | 51 (≈ 26.2 µg/mL) | 1.8 | 11 | 4 | – | – | – |
| N#Cc1ccc(C2(O)CCN(C(=O)c3nn(-c4ccccc4Cl)c(-c4ccc(Cl)cc4)c3CC(N)=O)CC2)cc1 | 73 (≈ 41.9 µg/mL) | 2.5 | 0.7 | – | – | – | – |
| NC(=O)Cc1c(C(=O)N2CCC(O)(c3ccccc3F)CC2)nn(-c2ccccc2Cl)c1-c1ccc(Cl)cc1 | 66 (≈ 37.5 µg/mL) | 2.8 | 0.5 | – | – | – | – |
| O=C(c1nn(-c2ccccc2Cl)c(-c2ccc(Cl)cc2)c1Cc1nn[nH]n1)N1CCC(Oc2ccc(F)cc2)CC1 | 500 (≈ 296 µg/mL) | 2.4 | 170 | 13 | 41 | – | – |
| CS(=O)(=O)N1CCC(NC(=O)c2nn(-c3ccccc3Cl)c(-c3ccc(Cl)cc3)c2CC(N)=O)CC1 | 61 (≈ 33.6 µg/mL) | 2.4 | 9.5 | 8 | – | – | – |
| NC(=O)Cc1c(C(=O)N2CCC(O)(c3cccc(F)c3)CC2)nn(-c2ccccc2Cl)c1-c1ccc(Cl)cc1 | 62 (≈ 35.2 µg/mL) | 2.8 | 0.5 | 16 | – | – | – |
